Measurements taken from patent publication US8546338B2, “Self-assembling hydrogels based on dicephalic peptide amphiphiles” (Johnson & Johnson Consumer Companies, Inc., priority 2010, dated 2013).

Test system: human umbilical cord cells (hUTCs)
Assay: Cell viability of encapsulated hUTCs in DPA gels (Live/Dead)
Type: cell-based
Details: 2 wt % gel, 100,000 cells, after 1, 2 and 3 weeks
Procedure: The viability and proliferation of cells in the gels was evaluated by encapsulating human umbilical cord cells (hUTCs) in the gels. hUTCs were isolated as described in U.S. Pat. No. 7,510,873. Cells were thawed from storage and cultured for four days in Hayflick media. After four days, the cells were trypsinized and counted by the Guava ViaCount methodology (Millipore, Billerica, Mass.). Cells were re-suspended in Hayflick media at a density of 1,000,000 cells/ml. Encapsulation of the cells in the gels was achieved by adding 100 μl cell suspension to 100 μl of a 4 wt % DPA solution in ultrapure in a 24 well plate, resulting in a final DPA concentration of 2%. The gels were incubated for 1 h at 37° C., 5% CO2 after which 1000 μl media was added on top of the gel. Cells were incubated at 37° C., 5% CO2. Every 3-4 days of culture, 500 μl media was replaced.
After mixing of the cell suspension and 4% DPA solution by pipetting up and down, the protocol described above was modified by adding 10 μl 100 mg/ml calcium chloride solution upon which gelation occurred. Final concentrations are 2% in DPA and 100,000 cells. Control gels without cells were prepared by using pure media and additional cell only and cells with calcium chloride controls were prepared as standard 2D culture. After 7 days of culture, the gels were assayed with Live/Dead assay for cell viability and Invitrogen CyQuant GR assay for cell proliferation (Invitrogen, Carlsbad, Calif.). The Live/Dead was performed as described in the provided protocol but at half the […] concentration to reduce non-specific fluorescence due to dye absorption. […] The cells in the gels contained a lot of viable cells (FIG. 410). No dead cells could be observed in the gels. Therefore, the viability of these cells in the gels is very high (>95%).
In a second experiment, 100,000 hUTC cells were encapsulated in 2 wt % Gly-Phe-Gly-Phe-Gly-Phe-Gly-Gln-Gln-Ser (SEQ ID NO: 8) DPA gels. The cells were cultured for 3 weeks and cells were assessed after 1, 2 and 3 weeks with Live/Dead.

CCCCCCCCCCCCCCCC(=O)NC(C(=O)NCC(=O)N[C@@H](Cc1ccccc1)C(=O)NCC(=O)N[C@@H](Cc1ccccc1)C(=O)NCC(=O)N[C@@H](Cc1ccccc1)C(=O)NCC(=O)N[C@@H](CCC(N)=O)C(=O)N[C@@H](CCC(N)=O)C(=O)N[C@@H](CO)C(=O)O)C(=O)NCC(=O)N[C@@H](Cc1ccccc1)C(=O)NCC(=O)N[C@@H](Cc1ccccc1)C(=O)NCC(=O)N[C@@H](Cc1ccccc1)C(=O)NCC(=O)N[C@@H](CCC(N)=O)C(=O)N[C@@H](CCC(N)=O)C(=O)N[C@@H](CO)C(=O)O [Gly-Phe-Gly-Phe-Gly-Phe-Gly-Gln-Gln-Ser]
Viability of hUTC cells, Live/Dead: very limited numbers of dead cells were detected
